In brackets after ≈: the same amount, converted by molar mass. Read-outs that look alike come from different tables or passages of the source.
Assays:
[1] = system: Candida albicans ATCC 11651; experiment: In vitro antifungal MIC, microtiter broth dilution; details: Candida albicans, ATCC11651, 24 h, read-out: MIC values, C. albicans, 30°, 24 hours
Puccinia recondita = experiment: Example G wheat leaf rust; type: in vivo; details: 100 PPM, read-out: disease control rating, Ex. G
[2] = system: Candida albicans ATCC 11651; experiment: In vivo systemic Candida infection in mice, primary assay; set-up: species or system Candida albicans; CF-1 female mice; details: Candida albicans, 150 mg/kg per day, read-out: % Survival
Procedure, shortened: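 CF-1 female mice (20 g, 10 per group) were infected IV with 0.2 ml of 1×10^7/ml C. albicans ATCC 11651, then given test compound subcutaneously at 50 or 150 mg/kg/day at 1 and 6 h post-infection and once daily for three more days. Survival was followed for 21 days against infected untreated mice; ≥70% protection at 14 days was scored active.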

Pyricularia oryzae = experiment: whole plant or invertebrate; type: in vivo; details: Pyricularia oryzae, 120 h, read-out: disease control rating, Ex. E, 100 PPM
[3] = system: Cercosporidium personatum; experiment: Example B Peanut Late Leafspot; type: in vivo; details: Nothopassalora personata; 100 PPM; read-out: disease control rating, Ex. B
Procedure, shortened: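 Foliar spray on peanut seedlings, to run-off; test rates 100 or 20 ppm. Formulation: acetone at 6% of final volume, water with 250 ppm polyhydric alcohol ester surfactant.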

[4] = system: Erysiphe graminis f. sp. tritici; experiment: Example D wheat powdery mildew; type: in vivo; details: Blumeria graminis, 144 h; 100 PPM; read-out: disease control rating, Ex. D
Procedure, shortened: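 Spray to run-off on wheat seedlings; test suspension 100 or 20 ppm compound, acetone 6% v/v, 250 ppm polyhydric alcohol ester surfactant in water.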

Rhizoctonia solani [5] = experiment: Example K cotton blight; type: in vivo; details: 336 h, 5 kg/ha, read-out: disease control rating, Ex. K
Procedure: […] Seeds and soil were then inoculated with a mixture of sand, cereal and mycelium of the fungus Rhizoctonia solani, causal agent of cotton blight, and incubated in a growth chamber at 30° C. for 14 days. Disease ratings were then made.

Plasmorpara viticola = experiment: Example I grape downy mildew; type: in vivo; details: read-out: disease control rating, Ex. I
Procedure, shortened: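 Applied as a foliar spray to run-off on grape seedlings, the compounds were formulated at 100 or 20 ppm in water containing 250 ppm TREM 014, with acetone making up 6% of the volume.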

Botrytis cinerea = experiment: Example C bean grey mold; type: in vivo; details: Botrytis cinerea, 24 h, 100 PPM; read-out: disease control rating, Ex. C
Procedure, shortened: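 Broad bean seedlings; foliar spray to run-off. Cmpd 100 or 20 ppm in water + 250 ppm TREM 014, acetone 6% v/v final.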

Phytophthora infestans = experiment: whole plant or invertebrate; type: in vivo; details: Phytophthora infestans, in Solanum lycopersicum, read-out: disease control rating, Ex. H, 100 PPM
Venturia inaequalis = experiment: Example A apple scab; type: in vivo; details: 100 PPM, read-out: disease control rating, Ex. A
Procedure, shortened: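 Acetone solution (6% of final vol.) → suspension at 100 or 20 ppm in water + 250 ppm TREM 014 surfactant; sprayed to run-off on apple seedlings.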

[6] = system: Aspergillus fumigatus ATCC 28214; experiment: In vitro antifungal MIC, microtiter broth dilution; details: Aspergillus fumigatus, ATCC28214, 24 h, read-out: MIC values, A. fumigatus, 30°, 24 hours
Rhizoctonia solani [7] = experiment: Example F rice sheath blight; type: in vivo; details: Rhizoctonia solani, 144 h, 100 PPM; read-out: disease control rating, Ex. F
Procedure, shortened: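 Spray to run-off on rice seedlings; test suspension 100 or 20 ppm compound in water + 250 ppm TREM 014 surfactant, acetone 6% final volume.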

Pythium aphanadermatum = experiment: Example J cucumber damping off; type: in vivo; set-up: key to phytotoxicity entry, Ex. J: P: disease control was not measured due to phytoxicity; details: 5 kg/ha; for pest or weed control at 5000 g/ha: Pythium, 336 h, read-out: disease control rating, Ex. J
Procedure: […] Seeds and soil were then inoculated with a mixture of sand, cereal and mycelium of the fungus Pythium aphanadermatum, causal agent of cucumber damping off, and incubated in a growth chamber at 30° C. for 14 days. Disease ratings were then made.

Sclerotium rolfsii = experiment: Example M southern blight; type: in vivo; details: Agroathelia rolfsii, 336 h; 5 kg/ha; read-out: disease control rating, Ex. M
Procedure: […] Seeds and soil were then inoculated with a mixture of sand, cereal and mycelium of the fungus Sclerotium rolfsii, causal agent of sourthern blight, and incubated in a growth chamber at 30° C. for 14 days. Disease ratings were then made.

With `C=C(c1ccc(Cl)cc1Cl)C(O)(Cn1cncn1)c1ccc(F)cc1` (stereo not shown) [Example 99] the MIC [1] was 0.05 µg/mL (≈ 0.132 µM), the pest or weed control at 100 ppm (Puccinia recondita) was 100% and the responders at 150 mg/kg ([2]; ATCC11651, 168 h, day 7) was 100%. For the same compound, the responders at 150 mg/kg ([2]; ATCC11651, 336 h, day 14) was 100%, the responders at 150 mg/kg ([2]; ATCC11651, 504 h, day 21) was 40% and the pest or weed control at 100 ppm (Pyricularia oryzae) was 98%. The pest or weed control at 100 ppm [3] was 100%, the pest or weed control at 100 ppm [4] was 83% and the pest or weed control at 5000 g/ha (Rhizoctonia solani [5]) was 0%. It also gave a pest or weed control at 100 ppm (Plasmorpara viticola) of 83%, a pest or weed control at 100 ppm (Botrytis cinerea) of 89% and a pest or weed control at 100 ppm (Phytophthora infestans) of 0%. The pest or weed control at 100 ppm (Venturia inaequalis) was 100%, the MIC [6] was 6.3 µg/mL (≈ 16.7 µM) and the pest or weed control at 100 ppm (Rhizoctonia solani [7]) was 61%. For the same compound, the pest or weed control at 5000 g/ha (Pythium aphanadermatum) was 0%.
`C=C(c1ccc(Cl)cc1)C(O)(Cn1cncn1)c1ccc(F)cc1` (stereo not shown) [Example 25] showed an MIC [1] of 1.6 µg/mL (≈ 4.65 µM), a pest or weed control at 100 ppm (Puccinia recondita) of 97% and a responders at 150 mg/kg ([2]; ATCC11651, 168 h, day 7) of 100%. The responders at 150 mg/kg ([2]; ATCC11651, 336 h, day 14) was 100%, the responders at 150 mg/kg ([2]; ATCC11651, 504 h, day 21) was 50% and the pest or weed control at 100 ppm (Pyricularia oryzae) was 31%. For the same compound, the pest or weed control at 100 ppm [3] was 100%, the pest or weed control at 100 ppm [4] was 91% and the pest or weed control at 100 ppm (Plasmorpara viticola) was 0%. The pest or weed control at 5000 g/ha (Sclerotium rolfsii) was 35%, the pest or weed control at 100 ppm (Botrytis cinerea) was 96% and the pest or weed control at 100 ppm (Phytophthora infestans) was 0%. For the same compound, the pest or weed control at 100 ppm (Venturia inaequalis) was 100%, the MIC [6] was 25 µg/mL (≈ 72.7 µM) and the pest or weed control at 100 ppm (Rhizoctonia solani [7]) was 48%. The pest or weed control at 5000 g/ha (Pythium aphanadermatum) was 0%.
`C=C(c1ccc(F)cc1)C(O)(Cn1cncn1)c1ccc(Cl)cc1` (stereo not shown) [Example 3] was tested, and the MIC [1] was at most 0.4 µg/mL, the pest or weed control at 100 ppm (Puccinia recondita) was 100% and the responders at 150 mg/kg ([2]; ATCC11651, 168 h, day 7) was 100%. It also gave a responders at 150 mg/kg ([2]; ATCC11651, 336 h, day 14) of 100%, a responders at 150 mg/kg ([2]; ATCC11651, 504 h, day 21) of 60% and a pest or weed control at 100 ppm (Pyricularia oryzae) of 5%. It also gave a pest or weed control at 100 ppm [3] of 100%, a pest or weed control at 100 ppm [4] of 93% and a pest or weed control at 5000 g/ha (Rhizoctonia solani [5]) of 0%. For the same compound, the pest or weed control at 100 ppm (Plasmorpara viticola) was 0%, the pest or weed control at 100 ppm (Botrytis cinerea) was 93% and the pest or weed control at 100 ppm (Phytophthora infestans) was 0%. The pest or weed control at 100 ppm (Venturia inaequalis) was 100%, the MIC [6] was 50 µg/mL (≈ 145 µM) and the pest or weed control at 100 ppm (Rhizoctonia solani [7]) was 93%. It also gave a pest or weed control at 5000 g/ha (Pythium aphanadermatum) of 0%.
`C=C(c1ccc(Cl)cc1)C(O)(Cn1cncn1)c1ccccc1Cl` (stereo not shown) [Example 671] showed an MIC [1] of 0.03 µg/mL (≈ 0.0833 µM), a pest or weed control at 100 ppm (Puccinia recondita) of 100% and a responders at 150 mg/kg ([2]; ATCC11651, 168 h, day 7) of 100%. The responders at 150 mg/kg ([2]; ATCC11651, 336 h, day 14) was 100%, the responders at 150 mg/kg ([2]; ATCC11651, 504 h, day 21) was 60% and the pest or weed control at 100 ppm (Pyricularia oryzae) was 84%. For the same compound, the pest or weed control at 100 ppm [3] was 100%, the pest or weed control at 100 ppm [4] was 94% and the pest or weed control at 100 ppm (Plasmorpara viticola) was 84%. The pest or weed control at 5000 g/ha (Sclerotium rolfsii) was 0%, the pest or weed control at 100 ppm (Botrytis cinerea) was 92% and the pest or weed control at 100 ppm (Phytophthora infestans) was 0%. It also gave a pest or weed control at 100 ppm (Venturia inaequalis) of 100%, an MIC [6] of 0.2 µg/mL (≈ 0.555 µM) and a pest or weed control at 100 ppm (Rhizoctonia solani [7]) of 100%. For the same compound, the pest or weed control at 5000 g/ha (Pythium aphanadermatum) was 0%.
`C=C(c1ccc(C)cc1)C(O)(Cn1cncn1)c1ccc(F)cc1` (stereo not shown) [Example 721] showed an MIC [1] of 0.4 µg/mL (≈ 1.24 µM), a pest or weed control at 100 ppm (Puccinia recondita) of 100% and a responders at 150 mg/kg ([2]; ATCC11651, 168 h, day 7) of 100%. The responders at 150 mg/kg ([2]; ATCC11651, 336 h, day 14) was 30%, the responders at 150 mg/kg ([2]; ATCC11651, 504 h, day 21) was 30% and the pest or weed control at 100 ppm (Pyricularia oryzae) was 18%. The pest or weed control at 100 ppm [3] was 89%, the pest or weed control at 100 ppm [4] was 94% and the pest or weed control at 100 ppm (Plasmorpara viticola) was 0%. For the same compound, the pest or weed control at 100 ppm (Botrytis cinerea) was 95%, the pest or weed control at 100 ppm (Phytophthora infestans) was 0% and the pest or weed control at 100 ppm (Venturia inaequalis) was 73%. For the same compound, the MIC [6] was 12.5 µg/mL (≈ 38.7 µM), the pest or weed control at 100 ppm (Rhizoctonia solani [7]) was 100% and the “phytotoxicity entry, Ex. J” value (Pythium aphanadermatum) was “P”.
